The test system of series [1] is p-ERK. In words: Human birthmark explant protocol (Example 1): p-ERK in nevus sebaceous explants. The format is cell-based. To be noted: topical gel. From the text: Study Objectives: The primary objective was to assess the efficacy of a topically-formulated compound described herein in suppressing p-ERK, a downstream biomarker of RAS/MAPK signaling in epidermal nevus and nevus sebaceous. The secondary objectives was to assess permeability (where the compound was applied topically) in birthmark explants treated with a compound described herein.
Sample Collection and Eligibility: Discarded human birthmark (epidermal nevus and nevus sebaceous) samples were obtained from the Stanford Surgery Clinic, using an approved human subjects protocol (Stanford IRB #18325). Specimens were identified under the direction of the Principal Investigator and placed in cell proliferation media (DMEM/F12 containing penicillin/streptomycin (0.1%); fungizone (40 μg/mL); B27 (without vitamin A).
Samples were primary, untreated birthmarks of at least 6 mm in size; samples were excised by a shave, punch biopsy or elliptical excision. Specimens were identified under the direction of the Principal Investigator. Specimens were chopped into 2 mm fragments and placed in 24-well plates containing cell proliferation media (DMEM/F12 containing penicillin/streptomycin (0.1%); fungizone (40 μg/mL); B27 (without vitamin A) and submerged in media with drug. For topical gel application, samples were placed in 96 well plates with epidermal surface exposed to air.
For the data provided in FIGS. 3 and 4, a gel topical gel formulation of Trametinib, Compound No. 2.003, Compound No. 4.029, or the gel topical formulation of vehicle only were topically applied to the surface of a birthmark explant at 4 hours for analysis. The gel formulation was 1% hydroxypropyl cellulose in DMSO/PEG 400 1:1 (v/v) and the tested compound was 1% by weight in the gel formulation. Samples were harvested at 4 hours for analysis. Harvested tissue was bisected and with half snap frozen and half fixed in 10% formalin and paraffin embedded for further analysis.
For the data provided in FIG. 5, a gelled topical gel formulation of Compound 2.003 or the gel topical formulation of vehicle only were topically applied to the surface of a birthmark explant at 4 hours for analysis. The gel formulation was 1.5% hydroxypropyl cellulose in the base formulation and the tested compound was 0.01% by weight of the base formulation. The Compositions of the base formulation are listed below. Samples were harvested at 4 hours for analysis. Harvested tissue was bisected and with half snap frozen and half fixed in 10% formalin and paraffin embedded for further analysis.
For the data provided in FIG. 6, three gelled topical gel formulations of Compound 2.003 at different concentrations or the gel topical formulation of vehicle only were topically applied to the surface of a birthmark explant at 4 hours for analysis. […]

In series [2] the test system is A375 cells. The series can be described thus: Cell-Based Assay-2 (Example 5): Cell Titer-Glo viability, A375 (BRAF) GI50. To be noted: Homo sapiens, A-375; Table 8, compounds of formula (II); 72 hours. The protocol:
(§1) Alternatively, the following procedure can be used to measure cell-based activity. Test compounds were dissolved in DMSO in 10 mM stock. Cell Titer-Glo® 2.0 Luminescent cell viability assay reagent was purchased from Promega (Madison, Wis.). A375 and HCT116 cell lines were purchased from American Type Culture Collection (Manassas, Va.). For A375 cells, cell culture media was DMEM+10% FBS. For HCT116 cells, cell culture media was McCoy's 5A+10% FBS. All media were supplemented with 100 μg/mL of penicillin, and 100 μg/mL of streptomycin. Cultures were maintained at 37° C. in a humidified atmosphere of 5% CO2 and 95% air.
(§2) Test compounds were diluted in DMSO solution with 10-dose and 3-fold dilutions in a source plate starting at 10 mM. […] Luminescence was recorded by Envision 2104 Multilabel Reader (PerkinElmer, Santa Clara, Calif.). The number of viable cells in culture was determined based on quantitation of the ATP present in each culture well. […] Luminescence was recorded by Envision 2104 Multilabel Reader (PerkinElmer, Santa Clara, Calif.). The number of viable cells in culture was determined based on quantitation of the ATP present in each culture well. […] All parameters in the equation were calculated by GraphPad Prism 4 program. […] Accordingly, GI50 is the value of 10^X, where X was calculated by the Curve Fitting Equation when Y=50 using Excel.
For orientation: ATP-based viability assays read luminescence as a measure of living cells.

In series [3] the target is T1, MEK1 (Homo sapiens, UniProt Q02750).
T1 construct: N-terminal His-tagged recombinant human full length protein; purchased Invitrogen PV3303; host or cells: insect cells
T1 sequence (Q02750 whole entry): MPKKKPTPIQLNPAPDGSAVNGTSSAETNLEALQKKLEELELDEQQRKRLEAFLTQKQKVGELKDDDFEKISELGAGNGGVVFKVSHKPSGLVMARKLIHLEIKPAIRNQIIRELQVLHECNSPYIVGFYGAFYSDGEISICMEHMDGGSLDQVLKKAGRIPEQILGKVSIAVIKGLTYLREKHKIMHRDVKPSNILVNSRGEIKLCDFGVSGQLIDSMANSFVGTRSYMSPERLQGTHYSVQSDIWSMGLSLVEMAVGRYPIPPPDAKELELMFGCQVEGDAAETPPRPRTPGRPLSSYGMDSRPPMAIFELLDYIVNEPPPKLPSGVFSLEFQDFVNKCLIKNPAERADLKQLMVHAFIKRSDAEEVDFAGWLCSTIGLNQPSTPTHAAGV
In words: MEK Inhibition Assay-1 (Example 2): 33P-ATP, P81 filter-binding kinase assay. To be noted: read-out: Assay 1: biochemical MEK IC50. The protocol: The following procedure can be used to measure biochemical activity. MEK1 inhibitory activity of compounds were tested using the following procedure. […] Nat Biotechnoi 2011, 29(11), 1039-45.
• Reaction buffer: 20 mM Hepes (pH 7.5), 10 mM MgCl2, 1 mM EGTA, 0.02% Brij35, 0.02 mg/mL BSA, 0.1 mM Na3VO4, 2 mM DTT, 1% DMSO • Enzyme: MEK1, Invitrogen cat #PV3303 • N-terminal His-tagged recombinant human full length protein, expressed in insect cells. Activated in vitro by RAF1. MW=49.2 kDa, GenBank Accession No. NP_002746. • Substrate: 5 μM ERK2 (K52R), • Kinase-dead mutant, (GenBank Accession No. NM_0011949), aa2-358 with N-terminal His6 tag, MW=43.63 kDa, expressed in E. coli.
The substrate was prepared in freshly prepared Reaction Buffer. The kinase was delivered into the substrate solution and gently mixed. Test compounds were delivered in 100% DMSO into the kinase reaction mixture by Acoustic technology (Echo550; nanoliter range), and incubated for 20 min at room temperature. ^33P-ATP was delivered into the reaction mixture to initiate the reaction. The reaction mixture was incubated for 2 hours at room temperature. Kinase activity was detected by P81 filter-binding method.

For series [4], the system named is HCT116 cells. The series can be described thus: Cell-Based Assay-2 (Example 5): Cell Titer-Glo viability, HCT116 (Kras) GI50. To be noted: Homo sapiens, HCT-116; Table 8, compounds of formula (II); 72 hours; read-out: Assay 3: HCT116 (Kras) GI50. The protocol: as §1, §2
The target of series [5] is T2, MAP2K1 (MEK1) (Homo sapiens, UniProt Q02750).
T2 construct: purchased ThermoFisher
T2 sequence (Q02750 whole entry): as above
In words: MEK Inhibition Assay-2 (Example 3): Z'-LYTE biochemical assay. Particulars: Table 6; procedure of Example 3; read-out: IC50 against MEK1. The protocol:
MEK1 inhibitory activity of compounds were tested using the following procedure (protocol available at thermofisher.com/content/dam/LifeTech/migration/files/drug-discovery/pdfs.par.60256.file.dat/20130430%20ssbk%20customer%20protocol%20and%20assay%20conditions.pdf). The Z′-LYTE biochemical assay (ThermoFisher) employs a fluorescence-based, coupled-enzyme format and is based on the differential sensitivity of phosphorylated and non-phosphorylated peptides to proteolytic cleavage.
Test compounds in 100% DMSO were screened in 1% DMSO (final) in the well. For 10 point titrations, 3-fold serial dilutions are conducted from the starting concentration of 30 μM.
After the 1 hour incubation, 5 μL of a 1:1024 dilution of Development Reagent A (available from Invitrogen, catalog no. PV3295) was added.
ATP solutions were diluted to a 4× working concentration in Kinase Buffer (50 mM HEPES pH 7.5, 0.01% BRIJ-35, 10 mM MgCl2, 1 mM EGTA). ATP Km apparent was previously determined using a Z′-LYTE assay. The Development Reagent was diluted in Development Buffer (available from Invitrogen, catalog no. P3127).
Assay Protocol: 2.5 μL of 4× test compound or 100 nL of 100× Test Compound plus 2.4 μL Kinase Buffer, 5 μL of the 2× Peptide/Kinase Mixture, 2.5 μL of 4×ATP Solution were added to the plates and placed on a shake plate for 30-seconds. The kinase reaction was allowed to proceed for 60-minute at room temperature, before 5 μL of Development Reagent Solution was added, and the mixture agitated for 30-seconds on a shake plate. The mixture was incubated for 60-minute at room temperature. Fluorescence was measured using a plate reader and the data were analyzed.
This control yielded 100% cleaved peptide in the Development Reaction. The 100% Phosphorylation Control, which consisted of a synthetically phosphorylated peptide of the same sequence as the peptide substrate, was designed to allow for the calculation of percent phosphorylation. This control yielded a very low percentage of cleaved peptide in the Development Reaction. The 0% Phosphorylation and 100% Phosphorylation Controls allow for the calculation of the percent phosphorylation achieved in a specific reaction well.
The minimum emission ratio in a screen was established by the 0% Inhibition Control, which contained active kinase. This control was designed to produce a 10-50% phosphorylated peptide in the Kinase Reaction. Cascade assays may produce up to 70% phosphorylated peptide.
A known inhibitor control standard curve, 10 point titration, was run for each individual kinase on the same plate as the kinase to ensure the kinase was inhibited within an expected IC50 range previously determined.
The following controls are prepared for each concentration of Test Compound assayed. […] The expected value for a non-interfering compound should be 100%. Any value outside of 90% to 110% was flagged. […] The expected value for a non-fluorescence compound should be 0%. Any value >20% was flagged.
The data in Table A was calculated. XLfit from IDBS was used. The dose response curve was curve fit to model number 205 (sigmoidal dose-response model).

For series [6] the following is noted: systemic exposure, background statement; cited from earlier work.
Setting [7] is: FIGS. 3 and 4, 1% by weight compound, 1% hydroxypropyl cellulose in DMSO/PEG 400 1:1, 4 hours.

A word on the GI50: it is the concentration giving 50% growth inhibition. One may read the IC50 as the concentration that inhibits the measured activity by half.

Read-outs that look alike come from different tables or passages of the source. Where only a bound is given, the exact number is not on record here.

In the case of `Cn1c(Nc2ccc(I)cc2F)c(C(=O)NOCCO)c2cccnc21` [Compound 2.003], the “suppression of p-ERK in human nevus sebaceous explants” value in series [1] (FIG. 5, 0.01% by weight compound, 1.5% hydroxypropyl cellulose in base formulation, 4 hours) is listed as “suppression of p-ERK”; in series [1] (setting [7]), “suppression of p-ERK”. The “dose response in suppression of p-ERK in human nevus sebaceous explants” value in series [1] (FIG. 6, 0.01%, 0.15% or 1.00% by weight compound, 4 hours) was “dose response”.
For the molecule `Cn1c(Nc2ccc(I)cc2F)c(C(=O)NOC[C@@H](O)CO)c2cccnc21` [Compound 2.006], the GI50 amounted to 0.081 µM in series [2] and 0.448 µM in series [4]. In addition, the IC50 in series [3] (Table 8, compounds of formula (II), tested by Example 2) amounted to 0.371 µM.
`O=C1CCCc2c1sc(Nc1ccc(I)cc1F)c2C(=O)NOCCO` [Compound 4.029]: the IC50 is no more than 0.5 µM in series [3] (Table 10, compounds of formula (IV), Example 2) and no more than 0.15 µM in series [5]. In addition, the “suppression of p-ERK in human nevus sebaceous explants” value in series [1] (setting [7]) is “suppression of p-ERK”.
In the case of `O=C(NOC[C@H](O)CO)c1ccc(F)c(F)c1Nc1ccc(I)cc1F` [PD0325901], in series [6], the “side effects of a clinically-tested MEK inhibitor” value is “neurological side effects associated with ataxia, confusion, and syncope”.

These data come from patent US20230013227A1, “ARYL-ANILINE AND HETEROARYL-ANILINE COMPOUNDS FOR TREATMENT OF BIRTHMARKS” (NFlection Therapeutics, Inc., priority 2018, published 2023).
